From patent US9816104B2, “Compositions and methods for deploying a transgenic refuge as a seed blend” (priority 2000, dated 2017) come the findings set out here.

The assay has as its system western and northern corn rootworm. As to the kind of experiment: Field trial, corn rootworm damage by Iowa class and synergy test, Example 3. The class given is in vivo. An excerpt: A field trial was established and completed in accordance with pertinent protocols and in conformance with USDA notification requirements. The purpose of the trial was to determine the efficacy of transgenic event Cry3Bb.11231 in corn seed in combination with corn rootworm seed treatments using imidacloprid.
For each growing site that was selected, the plot design included the following:
The following seed treatment combinations were used for each growing area:
All seed treatments with pesticides were carried out as described in Example 1. In seed treatment number 1 and 2, Gaucho® was used for wire worm protection, but at levels sufficiently low that it would be expected to have no effect on corn rootworms (i.e., at a treatment level of about 60 gm of active/100 kg seed or 0.16 mg active/kernel), otherwise, seed receiving treatment number 2 had only transgenic event Cry3Bb.11231 and no pesticide treatment that would be expected to be effective against corn rootworm.
For seeds having treatments numbered 3 through 5, the pesticides were applied by the methods described in Example 1. For seeds having treatment numbers 6 and 7, commercially available Force® 3G and Lorsban® 15G were applied to the soil in a 5″ band at the time of sowing. The levels of application are as shown and are within the ranges recommended for standard commercial practice.
Corn seeds to be tested were planted and grown at four different locations across several Midwestern states in the United States corn belt according to the protocol described above.
The determination of damage by corn root worm was made according to the protocol described in Example 2.
Cry3Bb.11231 transgenic event was tested for possible synergy at a level of rootworm damage of 3-6. In the first test, shown in Table 2, the percentage of test plants having damage levels of from 3 to 6, on the Iowa 1-6 Scale, was determined for the control and for seeds treated with the pesticide at two levels, and for seeds having the transgenic event, alone and in combination. The following formula was then used to calculate a “synergy threshold”: (% of control Cry3Bb.11231)*(% of control imidacloprid treatment)/100.
This threshold was compared against the percent of control for the treatment combination (i.e., Cry3Bb.11231 with imidacloprid @ 400 gm/100 kg). If the treatment combination percent of control was below the threshold, then it was concluded that there was synergy.
It was believed that the measurement of rootworm damage at higher damage levels (i.e., levels 3-6) is a useful indicator that correlates with subsequent yield loss due to such damage. The reason for this is that rootworm damage at levels 1 and 2 seldom causes corn plants to fall over and lodge, and such minimal root loss is not believed to reduce the number or weight of kernels per ear. However, root damage at levels of 3 and above increasingly causes lodging and loss of yield. Therefore, it is believed that the summed damage levels of 3-6 (and in some cases, 4-6 and 5 and 6), provides a useful indication of the effect of corn rootworm damage on subsequent corn yield.

Regarding `O=[N+]([O-])NC1=NCCN1Cc1ccc(Cl)nc1` [Imidacloprid, 1-[(6-chloro-3-pyridinyl)methol]-N-nitro-2-imidazolidinimime], the “effectiveness against corn rootworm damage” value (imidacloprid at 400 gm/100 kg of seed) is “effective against corn rootworm damage”. Besides, where the note is “number of plants in Iowa class 1, imidacloprid at 400 g/100 kg seed”, the “CORN ROOTWORM DAMAGE IN EACH IOWA CLASS (IOWA 1-6 SCALE) 1” value turned out to be 3. For the same compound, the “CORN ROOTWORM DAMAGE IN EACH IOWA CLASS (IOWA 1-6 SCALE) 2” value (number of plants in Iowa class 2, imidacloprid at 400 g/100 kg seed) is listed as 15. Further, for the setting “number of plants in Iowa class 3, imidacloprid at 400 g/100 kg seed”, the “CORN ROOTWORM DAMAGE IN EACH IOWA CLASS (IOWA 1-6 SCALE) 3” value came out at 36. Also, where the note is “number of plants in Iowa class 4, imidacloprid at 400 g/100 kg seed”, the “CORN ROOTWORM DAMAGE IN EACH IOWA CLASS (IOWA 1-6 SCALE) 4” value is listed as 21. Where the note is “number of plants in Iowa class 5, imidacloprid at 400 g/100 kg seed”, the “CORN ROOTWORM DAMAGE IN EACH IOWA CLASS (IOWA 1-6 SCALE) 5” value turned out to be 5. For the same compound, the “CORN ROOTWORM DAMAGE IN EACH IOWA CLASS (IOWA 1-6 SCALE) 6” value (number of plants in Iowa class 6, imidacloprid at 400 g/100 kg seed) is recorded as 0.
